Data from PMC8296573, “Synthesis and Biological Evaluation of Fingolimod Derivatives as Antibacterial Agents” (ACS Omega, 2021).
Converted amounts (≈) assume the structure as drawn. Where two headings read alike, the source gives them in different places. Marks after values point to notes of the source that are not given here.

Tests used:
S. aureus ATCC 25923 [1] = test: Antibacterial activity, post-exposure on preformed 18-h-old biofilms; type: cell-based, Staphylococcus aureus; details: ± SD; for inhibition at 25 µM / inhibition at 50 µM / inhibition at 100 µM / inhibition at 200 µM: Staphylococcus aureus; for inhibition at 25 µM: ATCC25923, 25 µM; for inhibition at 50 µM: ATCC25923, 50 µM; for inhibition at 100 µM: ATCC25923, 100 µM; for inhibition at 200 µM: ATCC25923, 200 µM
Summary of the method: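 Compounds were applied to preformed 18-h biofilms after medium change and left 24 h. Read-outs: planktonic OD plus resazurin fluorescence (20 μM), biofilm metabolic activity by resazurin 30 min at 37 °C, then biomass by crystal violet absorbance at 595 nm after ethanol fixation.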

P. aeruginosa ATCC 9027 = test: Antibacterial activity, pre-exposure; type: cell-based, Pseudomonas aeruginosa; details: for Average inhibition %, biofilms viability / Average inhibition %, planktonic cells viability / inhibition at 50 µM / inhibition at 100 µM / inhibition at 150 µM / inhibition at 200 µM: P. aeruginosa ATCC 9027, pre-exposure, ± SD; for inhibition at 50 µM / inhibition at 100 µM / inhibition at 150 µM / inhibition at 200 µM: ATCC9027
Summary of the method: (§1)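 Compounds are diluted in DMSO and plated, then bacteria are added to test prevention of growth and biofilm formation. After 18 h at 37 °C with shaking, planktonic OD and resazurin fluorescence are measured. Washed biofilms receive resazurin (30 min S. aureus, 60 min A. baumannii, 90 min P. aeruginosa, 37 °C), then crystal violet.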

S. aureus ATCC 25923 [2] = test: Antibacterial activity, pre-exposure (planktonic cells and biofilm formation); type: cell-based, Staphylococcus aureus; details: for inhibition at 5 µM / inhibition at 10 µM / inhibition at 15 µM / inhibition at 25 µM / Average inhibition %, biofilms viability / Average inhibition %, planktonic cells viability: pre-exposure, ± SD
Summary of the method: as §1

A. baumannii NCTC 13423 = test: Antibacterial activity, pre-exposure; type: cell-based, Acinetobacter baumannii; details: for Average inhibition %, biofilms viability / Average inhibition %, planktonic cells viability / inhibition at 10 µM / inhibition at 15 µM / inhibition at 25 µM / inhibition at 50 µM: A. baumannii NCTC 13423, pre-exposure, ± SD
Summary of the method: as §1

[3] = read-out: Average inhibition %, biofilms biomass
[4] = read-out: Average inhibition %, planktonic cells turbidity

CCCCCCCCc1ccc(CCC(N)(CO)CO)cc1 [fingolimod, Fingolimod]
Average inhibition %, biofilms viability (S. aureus ATCC 25923 [1]; 25 µM): 19.2 ± 14.5%
Average inhibition %, planktonic cells viability (S. aureus ATCC 25923 [1]; 25 µM): 7.8 ± 3.6%
Average inhibition %, biofilms viability (S. aureus ATCC 25923 [1]; 50 µM): 35 ± 7%
Average inhibition %, planktonic cells viability (S. aureus ATCC 25923 [1]; 50 µM): 2.9 ± 2.6%
Average inhibition %, biofilms viability (S. aureus ATCC 25923 [1]; 100 µM): 52.2 ± 12.4%
Average inhibition %, planktonic cells viability (S. aureus ATCC 25923 [1]; 100 µM): 48.9 ± 16.2%
Average inhibition %, biofilms viability (S. aureus ATCC 25923 [1]; 200 µM): 77.3 ± 19%
Average inhibition %, planktonic cells viability (S. aureus ATCC 25923 [1]; 200 µM): 90.5 ± 9.9%
inhibition at 25 µM (S. aureus ATCC 25923 [1]; [3]): 39.7 ± 16.2%
inhibition at 25 µM (S. aureus ATCC 25923 [1]; [4]): 1.1 ± 2%
inhibition at 50 µM (S. aureus ATCC 25923 [1]; [3]): 60.7 ± 12.4%
inhibition at 50 µM (S. aureus ATCC 25923 [1]; [4]): 13.8 ± 11.2%
inhibition at 100 µM (S. aureus ATCC 25923 [1]; [3]): 67.3 ± 9.5%
inhibition at 100 µM (S. aureus ATCC 25923 [1]; [4]): 42.4 ± 7%
inhibition at 200 µM (S. aureus ATCC 25923 [1]; [3]): 71 ± 11%
inhibition at 200 µM (S. aureus ATCC 25923 [1]; [4]): 75.5 ± 11%
Average inhibition %, biofilms viability (P. aeruginosa ATCC 9027; 50 µM): 12.4 ± 13.4%
Average inhibition %, planktonic cells viability (P. aeruginosa ATCC 9027; 50 µM): 43.9 ± 35.5%
Average inhibition %, biofilms viability (P. aeruginosa ATCC 9027; 100 µM): 36.5 ± 23.1%
Average inhibition %, planktonic cells viability (P. aeruginosa ATCC 9027; 100 µM): 92.5 ± 4.8%
Average inhibition %, biofilms viability (P. aeruginosa ATCC 9027; 150 µM): 42.4 ± 25.3%
Average inhibition %, planktonic cells viability (P. aeruginosa ATCC 9027; 150 µM): 94.2 ± 3.6%
Average inhibition %, biofilms viability (P. aeruginosa ATCC 9027; 200 µM): 47.5 ± 22.6%
Average inhibition %, planktonic cells viability (P. aeruginosa ATCC 9027; 200 µM): 95 ± 1.2%
MIC (P. aeruginosa ATCC 9027; Pseudomonas aeruginosa, ATCC9027, pre-exposure, Inactive = no activity up to 200 μM, > = some inhibition but no MIC reached, read-out: MIC P. aeruginosa ATCC 9027): > 200 µM
inhibition at 50 µM (P. aeruginosa ATCC 9027; Pseudomonas aeruginosa, 50 µM, read-out: Average inhibition %, biofilms biomass): 30.1 ± 16.2%
inhibition at 50 µM (P. aeruginosa ATCC 9027; Pseudomonas aeruginosa, 50 µM, read-out: Average inhibition %, planktonic cells turbidity): 51.5 ± 24%
inhibition at 100 µM (P. aeruginosa ATCC 9027; Pseudomonas aeruginosa, 100 µM, read-out: Average inhibition %, biofilms biomass): 36.9 ± 13.7%
inhibition at 100 µM (P. aeruginosa ATCC 9027; Pseudomonas aeruginosa, 100 µM, read-out: Average inhibition %, planktonic cells turbidity): 85.9 ± 3.6%
inhibition at 150 µM (P. aeruginosa ATCC 9027; Pseudomonas aeruginosa, 150 µM, read-out: Average inhibition %, biofilms biomass): 40.7 ± 17.8%
inhibition at 150 µM (P. aeruginosa ATCC 9027; Pseudomonas aeruginosa, 150 µM, read-out: Average inhibition %, planktonic cells turbidity): 86.8 ± 3.4%
inhibition at 200 µM (P. aeruginosa ATCC 9027; Pseudomonas aeruginosa, 200 µM, read-out: Average inhibition %, biofilms biomass): 45.4 ± 18.5%
inhibition at 200 µM (P. aeruginosa ATCC 9027; Pseudomonas aeruginosa, 200 µM, read-out: Average inhibition %, planktonic cells turbidity): 85.1 ± 3.8%
MIC P. aeruginosa ATCC 9027 (P. aeruginosa ATCC 9027; pre-exposure, Inactive = no activity up to 200 μM, > = some inhibition but no MIC reached, listed as Fgd): > 200 ^b μM
MIC (S. aureus ATCC 25923 [2]; Staphylococcus aureus, ATCC25923, lowest concentration with no visible growth (>90% inhibition of turbidity and viability of planktonic cells), 18 h, read-out: MIC S. aureus ATCC 25923): 15 µM (≈ 4.61 µg/mL)
inhibition at 5 µM (S. aureus ATCC 25923 [2]; Staphylococcus aureus, ATCC25923, 5 µM, read-out: Average inhibition %, biofilms biomass): 37 ± 11.2%
inhibition at 5 µM (S. aureus ATCC 25923 [2]; Staphylococcus aureus, ATCC25923, 5 µM, read-out: Average inhibition %, planktonic cells turbidity): 25 ± 10.6%
inhibition at 10 µM (S. aureus ATCC 25923 [2]; Staphylococcus aureus, ATCC25923, 10 µM, read-out: Average inhibition %, biofilms biomass): 42.2 ± 5%
inhibition at 10 µM (S. aureus ATCC 25923 [2]; Staphylococcus aureus, ATCC25923, 10 µM, read-out: Average inhibition %, planktonic cells turbidity): 36.7 ± 10%
inhibition at 15 µM (S. aureus ATCC 25923 [2]; Staphylococcus aureus, ATCC25923, 15 µM, read-out: Average inhibition %, biofilms biomass): 91.7 ± 6%
inhibition at 15 µM (S. aureus ATCC 25923 [2]; Staphylococcus aureus, ATCC25923, 15 µM, read-out: Average inhibition %, planktonic cells turbidity): 99.8 ± 0.1%
inhibition at 25 µM (S. aureus ATCC 25923 [2]; Staphylococcus aureus, ATCC25923, 25 µM, read-out: Average inhibition %, biofilms biomass): 90.8 ± 6.9%
inhibition at 25 µM (S. aureus ATCC 25923 [2]; Staphylococcus aureus, ATCC25923, 25 µM, read-out: Average inhibition %, planktonic cells turbidity): 99.8 ± 0.1%
Average inhibition %, biofilms viability (S. aureus ATCC 25923 [2]; 5 µM): 38.7 ± 5.5%
Average inhibition %, planktonic cells viability (S. aureus ATCC 25923 [2]; 5 µM): 16.1 ± 26.5%
Average inhibition %, biofilms viability (S. aureus ATCC 25923 [2]; 10 µM): 41.5 ± 7.1%
Average inhibition %, planktonic cells viability (S. aureus ATCC 25923 [2]; 10 µM): 17.2 ± 23.4%
Average inhibition %, biofilms viability (S. aureus ATCC 25923 [2]; 15 µM): 99.7 ± 0.2%
Average inhibition %, planktonic cells viability (S. aureus ATCC 25923 [2]; 15 µM): 99.9 ± 0%
Average inhibition %, biofilms viability (S. aureus ATCC 25923 [2]; 25 µM): 99.5 ± 0.1%
Average inhibition %, planktonic cells viability (S. aureus ATCC 25923 [2]; 25 µM): 99.9 ± 0.1%
Average inhibition %, biofilms viability (A. baumannii NCTC 13423; 10 µM): 0.2 ± 0.5%
Average inhibition %, planktonic cells viability (A. baumannii NCTC 13423; 10 µM): 5.9 ± 4.9%
Average inhibition %, biofilms viability (A. baumannii NCTC 13423; 15 µM): 63.6 ± 31.5%
Average inhibition %, planktonic cells viability (A. baumannii NCTC 13423; 15 µM): 74.1 ± 38.2%
Average inhibition %, biofilms viability (A. baumannii NCTC 13423; 25 µM): 97.6 ± 2.3%
Average inhibition %, planktonic cells viability (A. baumannii NCTC 13423; 25 µM): 99.5 ± 0.3%
Average inhibition %, biofilms viability (A. baumannii NCTC 13423; 50 µM): 98.4 ± 1.1%
Average inhibition %, planktonic cells viability (A. baumannii NCTC 13423; 50 µM): 99.4 ± 0.4%
inhibition at 10 µM (A. baumannii NCTC 13423; Acinetobacter baumannii, NCTC13423, 10 µM, read-out: Average inhibition %, biofilms biomass): 1.9 ± 3.9%
inhibition at 10 µM (A. baumannii NCTC 13423; Acinetobacter baumannii, NCTC13423, 10 µM, read-out: Average inhibition %, planktonic cells turbidity): 0%
inhibition at 15 µM (A. baumannii NCTC 13423; Acinetobacter baumannii, NCTC13423, 15 µM, read-out: Average inhibition %, biofilms biomass): 44.1 ± 26.9%
inhibition at 15 µM (A. baumannii NCTC 13423; Acinetobacter baumannii, NCTC13423, 15 µM, read-out: Average inhibition %, planktonic cells turbidity): 71.1 ± 37.7%
inhibition at 25 µM (A. baumannii NCTC 13423; Acinetobacter baumannii, NCTC13423, 25 µM, read-out: Average inhibition %, biofilms biomass): 79.2 ± 13.4%
inhibition at 25 µM (A. baumannii NCTC 13423; Acinetobacter baumannii, NCTC13423, 25 µM, read-out: Average inhibition %, planktonic cells turbidity): 98.8 ± 2%
inhibition at 50 µM (A. baumannii NCTC 13423; Acinetobacter baumannii, NCTC13423, 50 µM, read-out: Average inhibition %, biofilms biomass): 84.8 ± 7.8%
inhibition at 50 µM (A. baumannii NCTC 13423; Acinetobacter baumannii, NCTC13423, 50 µM, read-out: Average inhibition %, planktonic cells turbidity): 98.5 ± 1.4%
MIC (A. baumannii NCTC 13423; Acinetobacter baumannii, NCTC13423, pre-exposure, Inactive = no activity up to 50 μM, > = some inhibition but no MIC reached, read-out: MIC A. baumannii NCTC 13423): 25 µM (≈ 7.69 µg/mL)
